These results are taken from doi:10.1101/2023.06.20.545697v1 (biorxiv, 2023).

Each structure is given as a SMILES string. Converted amounts (≈) assume the structure as drawn.

The subject of test [1] is Mycobacterium tuberculosis S7. Description: microbe, parasite or virus in culture. Conditions: S7, 120 h, read-out: MIC99 (S7) µM.
Test [2] concerns Mycobacterium tuberculosis S6. Description: microbe, parasite or virus in culture. Conditions: S6, 120 h, read-out: MIC99 (S6) µM.

As for `NCCSc1ncn[nH]1` [SF3], the MIC99 in test [1] turned out to be 250 µM (≈ 36.1 µg/mL).
`CC(C)C(N)c1ncnn1C` (stereo not shown) [SF2]: the MIC99 in test [1] and in test [2] was 125 µM (≈ 19.3 µg/mL) throughout.
With `CC(N)c1ncnn1C` (stereo not shown) [SF1], in test [1], the MIC99 was 250 µM (≈ 31.5 µg/mL).
